Measured values reported in publication PMC6330093 (Bioconjugate chemistry, 2017).

Legend:
proteinase K = proteinase K (Parengyodontium album, UniProt P06873); assay: HPLC-based proteolysis assay with proteinase K; format: in vitro ADME
[1] = variable temperature CD, 50 μM protein, 20 mM sodium phosphate buffer, pH 7

proteinase K, sequence (P06873 106-384, species assumed): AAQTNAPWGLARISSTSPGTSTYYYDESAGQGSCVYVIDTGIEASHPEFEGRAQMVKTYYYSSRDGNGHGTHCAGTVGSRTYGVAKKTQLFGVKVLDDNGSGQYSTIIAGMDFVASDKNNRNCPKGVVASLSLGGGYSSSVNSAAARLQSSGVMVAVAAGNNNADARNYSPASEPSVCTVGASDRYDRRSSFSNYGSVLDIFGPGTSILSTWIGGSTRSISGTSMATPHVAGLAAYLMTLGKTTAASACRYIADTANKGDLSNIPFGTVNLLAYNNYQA

Row | Structure (SMILES) | k, apparent proteolysis rate constant (proteinase K) | Tm (melting temperature) [1]
1 | CC[C@H](C)[C@H](NC(=O)[C@H](Cc1c[nH]cn1)NC(=O)[C@H](CC(N)=O)NC(=O)[C@H](Cc1ccccc1)NC(=O)[C@H](Cc1ccc(O)cc1)NC(=O)[C@H](CCC(N)=O)NC(=O)[C@@H](NC(=O)[C@H](CCCNC(=N)N)NC(=O)CNC(=O)[C@H](CO)NC(=O)[C@H](CO)NC(=O)[C@H](CCCNC(=N)N)NC(=O)[C@H](CO)NC(=O)[C@H](CCSC)NC(=O)[C@H](CCCNC(=N)N)NC(=O)[C@H](CCCCN)NC(=O)[C@H](CCC(=O)O)NC(=O)[C@H](Cc1c[nH]c2ccccc12)NC(=O)CNC(=O)[C@@H]1CCCN1C(=O)[C@@H]1CCCN1C(=O)[C@H](CC(C)C)NC(=O)[C@@H](N)CCCCN)C(C)C)C(=O)N[C@H](C(=O)N[C@@H](CC(N)=O)C(=O)N[C@@H](C)C(=O)N[C@@H](CO)C(=O)N[C@@H](CCC(N)=O)C(=O)N[C@@H](Cc1ccccc1)C(=O)N[C@@H](CCC(=O)O)C(=O)N[C@@H](CCCNC(=N)N)C(=O)N1CCC[C@H]1C(=O)N[C@@H](CO)C(=O)NCC(=O)O)[C@@H](C)O [23Q] | 46.9 ±5.3 s^−1 × 10^3 | 39.4 ±0.2 °C
2 | CC[C@H](C)[C@H](NC(=O)[C@H](CCC(N)=O)NC(=O)[C@H](CC(N)=O)NC(=O)[C@H](Cc1ccccc1)NC(=O)[C@H](Cc1ccc(O)cc1)NC(=O)[C@H](Cc1ccc(O)cc1)NC(=O)[C@@H](NC(=O)[C@H](CCCNC(=N)N)NC(=O)CNC(=O)[C@H](CO)NC(=O)[C@H](CO)NC(=O)[C@H](CCCNC(=N)N)NC(=O)[C@H](CO)NC(=O)[C@H](CCSC)NC(=O)[C@H](CCCNC(=N)N)NC(=O)[C@H](CCCCN)NC(=O)[C@H](CCC(=O)O)NC(=O)[C@H](Cc1c[nH]c2ccccc12)NC(=O)CNC(=O)[C@@H]1CCCN1C(=O)[C@@H]1CCCN1C(=O)[C@H](CC(C)C)NC(=O)[C@@H](N)CCCCN)C(C)C)C(=O)N[C@H](C(=O)N[C@@H](CC(N)=O)C(=O)N[C@@H](C)C(=O)N[C@@H](CO)C(=O)N[C@@H](CCC(N)=O)C(=O)N[C@@H](Cc1ccccc1)C(=O)N[C@@H](CCC(=O)O)C(=O)N[C@@H](CCCNC(=N)N)C(=O)N1CCC[C@H]1C(=O)N[C@@H](CO)C(=O)NCC(=O)O)[C@@H](C)O [27Q] | 10.8 ±0.2 s^−1 × 10^3 | 56.4 ±0.2 °C
